Values quoted from earlier work, collected in patent publication US20030167159A1, “Method for determining molecular surface areas and volumes” (California Institute of Technology, priority 2001, published 2003).
One block for each compound: values may come before it. Where a SMILES comes first, the peptide text is derived from it.

Assays:
Details in all cases: as reported in Bursulaya et al.
[1] = target: T1, Trypsin (trp) (Bos taurus, UniProt P00760)
T1 sequence (P00760 24-246): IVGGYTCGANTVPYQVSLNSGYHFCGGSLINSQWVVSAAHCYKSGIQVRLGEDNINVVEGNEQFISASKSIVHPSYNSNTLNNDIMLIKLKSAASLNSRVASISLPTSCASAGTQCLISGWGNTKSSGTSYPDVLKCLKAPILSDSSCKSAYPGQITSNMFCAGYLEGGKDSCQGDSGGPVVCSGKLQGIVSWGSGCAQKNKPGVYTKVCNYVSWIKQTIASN

[2] = target: T2, Carboxypeptidase A (car) (Bos taurus, UniProt P00730)
T2 sequence (P00730 111-419): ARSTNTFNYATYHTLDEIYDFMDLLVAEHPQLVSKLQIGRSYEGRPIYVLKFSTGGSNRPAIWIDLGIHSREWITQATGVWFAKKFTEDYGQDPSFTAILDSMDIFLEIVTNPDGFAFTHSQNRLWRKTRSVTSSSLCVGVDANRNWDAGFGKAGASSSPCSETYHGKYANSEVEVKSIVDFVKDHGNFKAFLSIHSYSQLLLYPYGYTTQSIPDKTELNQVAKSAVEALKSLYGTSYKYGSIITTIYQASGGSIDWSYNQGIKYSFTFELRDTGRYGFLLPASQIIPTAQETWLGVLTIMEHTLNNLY

[3] = target: T3, Cytochrome P-450cam (cyt) (Pseudomonas putida, UniProt P00183)
T3 sequence (P00183 1-415): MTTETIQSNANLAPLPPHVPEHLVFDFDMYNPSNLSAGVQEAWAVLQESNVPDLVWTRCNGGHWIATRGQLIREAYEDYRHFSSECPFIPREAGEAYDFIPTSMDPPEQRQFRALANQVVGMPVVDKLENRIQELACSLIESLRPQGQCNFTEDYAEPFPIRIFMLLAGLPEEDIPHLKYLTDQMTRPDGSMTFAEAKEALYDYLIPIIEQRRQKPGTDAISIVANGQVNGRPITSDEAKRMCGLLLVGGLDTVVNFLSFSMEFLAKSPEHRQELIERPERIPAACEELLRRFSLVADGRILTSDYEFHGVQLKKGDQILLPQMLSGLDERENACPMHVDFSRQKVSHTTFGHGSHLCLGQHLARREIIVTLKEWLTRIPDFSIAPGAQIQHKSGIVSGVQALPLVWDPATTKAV

[4] = target: T4, L-Arabinose binding protein (ara) (Escherichia coli, UniProt P02924)
T4 sequence (P02924 24-329): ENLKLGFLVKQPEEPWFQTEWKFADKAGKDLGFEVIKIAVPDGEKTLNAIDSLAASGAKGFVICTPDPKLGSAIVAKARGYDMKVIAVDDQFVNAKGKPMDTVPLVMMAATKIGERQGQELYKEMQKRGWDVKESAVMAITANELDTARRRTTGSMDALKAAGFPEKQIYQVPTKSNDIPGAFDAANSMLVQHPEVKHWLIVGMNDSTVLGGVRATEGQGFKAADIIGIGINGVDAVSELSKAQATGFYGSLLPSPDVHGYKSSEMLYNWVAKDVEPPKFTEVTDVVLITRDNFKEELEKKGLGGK

[5] = target: T5, Intestinal FABP (fab) (Rattus norvegicus, UniProt P02693)
T5 sequence (P02693 1-132): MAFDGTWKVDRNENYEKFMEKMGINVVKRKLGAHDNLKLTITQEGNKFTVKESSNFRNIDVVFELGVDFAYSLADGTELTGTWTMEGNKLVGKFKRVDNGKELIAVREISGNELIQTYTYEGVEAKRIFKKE

[6] = target: T6, ε-Thrombin (ret) (Bos taurus, UniProt P00735)
T6 construct: ε-Thrombin (ret)

percentage of ligands in the 10037-compound database that score better than the co-crystal ligand, DOCK [2]: 14.2% | percentage of ligands in the 10037-compound database that score better than the co-crystal ligand, FlexX [2]: 1.4% | percentage of ligands in the 10037-compound database that score better than the co-crystal ligand, ICM [2]: 0.3%
SMILES: NCC(=O)N[C@@H](Cc1ccc(O)cc1)C(=O)O [3cpa] (H-Gly-Tyr-OH)

percentage of ligands in the 10037-compound database that score better than the co-crystal ligand, DOCK ([5]; Dock): 7.1% | percentage of ligands in the 10037-compound database that score better than the co-crystal ligand, FlexX ([5]; FlexX): 99.3% | percentage of ligands in the 10037-compound database that score better than the co-crystal ligand, ICM ([5]; ICM): 0.5%
SMILES: CCCCCCCCCCCCCCCC(=O)O [2ifb]

percentage of ligands in the 10037-compound database that score better than the co-crystal ligand, DOCK [1]: 20.3% | percentage of ligands in the 10037-compound database that score better than the co-crystal ligand, FlexX [1]: 14% | percentage of ligands in the 10037-compound database that score better than the co-crystal ligand, ICM [1]: 0.1%
SMILES: N=C(N)c1ccccc1 [3ptb]

percentage of ligands in the 10037-compound database that score better than the co-crystal ligand, DOCK [4]: 0.2% | percentage of ligands in the 10037-compound database that score better than the co-crystal ligand, FlexX [4]: 0.4% | percentage of ligands in the 10037-compound database that score better than the co-crystal ligand, ICM [4]: 0.02%
SMILES: OC[C@H]1OC(O)[C@H](O)[C@@H](O)[C@H]1O (stereo partly drawn) [5abp]

percentage of ligands in the 10037-compound database that score better than the co-crystal ligand, DOCK [1]: 58.1% | percentage of ligands in the 10037-compound database that score better than the co-crystal ligand, FlexX [1]: 37.1% | percentage of ligands in the 10037-compound database that score better than the co-crystal ligand, ICM [1]: 14.6%
SMILES: NCCCc1ccccc1 [1tnk]

Further lines, the compound ahead of its results:

SMILES: Cc1ccc(S(=O)(=O)N[C@@H](Cc2cccc(C(=N)N)c2)C(=O)N2CCCCC2)cc1 [1pph]
percentage of ligands in the 10037-compound database that score better than the co-crystal ligand, DOCK [1]: 37% | percentage of ligands in the 10037-compound database that score better than the co-crystal ligand, FlexX [1]: 0.6% | percentage of ligands in the 10037-compound database that score better than the co-crystal ligand, ICM [1]: 0.3%

SMILES: N[C@H]1C[C@@H]1c1ccccc1 [1tnl]
percentage of ligands in the 10037-compound database that score better than the co-crystal ligand, DOCK [1]: 82.9% | percentage of ligands in the 10037-compound database that score better than the co-crystal ligand, FlexX [1]: 39.1% | percentage of ligands in the 10037-compound database that score better than the co-crystal ligand, ICM [1]: 51.6%

SMILES: CC12CCC(CC1=O)C2(C)C (stereo not drawn) [2cpp]
percentage of ligands in the 10037-compound database that score better than the co-crystal ligand, DOCK ([3]; Dock): 7.3% | percentage of ligands in the 10037-compound database that score better than the co-crystal ligand, FlexX ([3]; FlexX): 12.6% | percentage of ligands in the 10037-compound database that score better than the co-crystal ligand, ICM ([3]; ICM): 11.7%

SMILES: C[C@H]1O[C@H](O)[C@H](O)[C@@H](O)[C@H]1O [1abf]
percentage of ligands in the 10037-compound database that score better than the co-crystal ligand, DOCK [4]: 1.2% | percentage of ligands in the 10037-compound database that score better than the co-crystal ligand, FlexX [4]: 0.2% | percentage of ligands in the 10037-compound database that score better than the co-crystal ligand, ICM [4]: 0.03%

SMILES: O=C(O)C[C@@H](Cc1ccccc1)C(=O)O [1cbx]
percentage of ligands in the 10037-compound database that score better than the co-crystal ligand, DOCK [2]: 36.8% | percentage of ligands in the 10037-compound database that score better than the co-crystal ligand, FlexX [2]: 2.7% | percentage of ligands in the 10037-compound database that score better than the co-crystal ligand, ICM [2]: 0.2%

SMILES: NCCc1ccccc1 [1tnj]
percentage of ligands in the 10037-compound database that score better than the co-crystal ligand, DOCK [1]: 45.1% | percentage of ligands in the 10037-compound database that score better than the co-crystal ligand, FlexX [1]: 47.9% | percentage of ligands in the 10037-compound database that score better than the co-crystal ligand, ICM [1]: 1.1%

SMILES: NCC1CCCCC1 [1tng]
percentage of ligands in the 10037-compound database that score better than the co-crystal ligand, DOCK [1]: 28.7% | percentage of ligands in the 10037-compound database that score better than the co-crystal ligand, FlexX [1]: 30.8% | percentage of ligands in the 10037-compound database that score better than the co-crystal ligand, ICM [1]: 0.3%

SMILES: O[C@@H]1[C@@H](O)[C@@H](O)CO[C@H]1O [1abe]
percentage of ligands in the 10037-compound database that score better than the co-crystal ligand, DOCK [4]: 0.5% | percentage of ligands in the 10037-compound database that score better than the co-crystal ligand, FlexX [4]: 0.2% | percentage of ligands in the 10037-compound database that score better than the co-crystal ligand, ICM [4]: 0.01%

SMILES: Cc1ccc(S(=O)(=O)N[C@@H](Cc2ccc(C(=N)N)cc2)C(=O)N2CCCCC2)cc1 [1ett]
percentage of ligands in the 10037-compound database that score better than the co-crystal ligand, DOCK ([6]; Dock): 0.9% | percentage of ligands in the 10037-compound database that score better than the co-crystal ligand, FlexX ([6]; FlexX): 9% | percentage of ligands in the 10037-compound database that score better than the co-crystal ligand, ICM ([6]; ICM): 0.06%
